# US20080113908A1, “Use of CRF receptor agonists for the treatment or Prophylaxis of diseases, for example Neurodegenerative diseases” (SmithKline Beecham plc, priority 2000, published 2008)
# Columns and labels:
# [1] = tested on: cerebellar granule neurons; assay: Delayed addition of CRF after LY 294002, variation of Assay 1 (FIGS. 6A, 6B); assay type: cell-based, rat
# Protocol: FIGS. 6A and 6B show neuronal survival results, using a variation of Assay 1 in which CRF (10 nM) was added at varying times (shown in hours) following LY 294002 (75 μM) addition. Therefore, granule neurons were cultured with the PI 3-kinase inhibitor LY 294002 (75 μM) in the presence of 10 nM CRF, added together with LY 294002 or at different times (shown in hours) following LY 294002 addition. FIG. 6A is the result from one experiment only. […] It appears from FIG. 6A that the neuroprotective effect is sustained when adding CRF at about 1-4 hrs after LY 294002 addition. From FIG. 6B, it appears that the neuroprotective effect is sustained when adding CRF up to 8 hours after LY 294002 addition.
# hippocampal neurones = assay: Amyloid-β peptide (25-35) toxicity, survival by counting viable neurons (FIGS. 8, 9); assay type: cell-based; details: Aβ(25-35) 10 μM, CRF 3-100 nM, 3 days
# Protocol: In order to test whether CRF receptor agonists protect neurones from death caused by Aβ, the following experiment was conducted (FIGS. 8 and 9). Hippocampal neurons from embryonic day 18 rat were cultured in serum-free medium (neurobasal/B27) for 9 days. The culture methods are described on page 48 of S. D. Skaper et al., J. Neurochem., 2001, 76, 47-55. Cells were then treated with amyloid-β peptide (fragment 25-35) (Sigma, cat. no. A-4559, sequence Gly-Ser-Asn-Lys-Gly-Ala-Ile-Ile-Gly-Leu-Met) at 10 μM plus the indicated CRF receptor agonist at the indicated concentration, in the same culture medium. […] Cell survival was assessed after 3 days, by fixing the cultures and counting microscopically viable neurons. Values are expressed relative to numbers of surviving neurons in untreated cultures (=100).
# [2] = target: cerebellar granule neurones; assay type: cell-based, rat; details: 48 h
# Protocol: Cerebellar granule neurones were used in the examples to test neuroprotection by CRF receptor agonists. Cerebellar granule neurones (CGNs) undergo apoptosis during the first few weeks of postnatal life, and in culture require mildly depolarising concentrations of KCl (25 mM) for their survival and maturation (S. R: D'Mello et al., Proc. Natl. Acad. Sci. USA 90, 10989-10993, 1993). The growth signal provided by KCl depends upon activation of the phosphatidylinositol 3-kinase (PI 3-kinase) pathway, and pharmacological inhibition of PI 3-kinase in differentiated granule neurones leads to apoptotic death in the CGNs (T. M. Miller et al., J. Biol. Chem., 272, 9847-9853, 1997). Thus, cultured CGNs represent a suitable model to study mechanisms of programmed cell death, and to identify putative neuroprotective signalling pathways.
# Assay 1: Cerebellar granule neurones prepared from postnatal day 8 Sprague Dawley rat pups were used for experiments on death induced by inhibition of PI 3-kinase. General culture methods are described in S. D. Skaper et al. in Methods in Neurosciences, Vol. 2 (Conn P. M., ed), pp. 17-33. Academic Press, San Diego, 1990. At 8-9 days in vitro (DIV), granule neurone cultures were shifted to phenol red-free Dulbecco's modified Eagle's medium lacking serum, and containing 0.05% bovine serum albumin and 25 mM KCl. Death was induced by addition of the PI 3-kinase inhibitor LY 294002 (75 μM). CRF or CRF agonist peptides (urotensin 1, urocortin, sauvagine) were added at different concentrations (from 0.3nM to 300 nM or 1000 nM) together with LY 294002. Forty-eight hours later neuronal survival was quantified by a colorimetric reaction MTT. Absolute MTT values obtained were normalised for small differences in interexperiment plating densities by scaling to the mean of sham-treated sister cultures (defined as 100%).
# Results are shown in Table 1 below and in graphical form in FIG. 1, which show the percentage mean neuronal survival (and standard deviation), when in the presence of the relevant CRF receptor agonists and LY 294002, as a function of agonist concentration. […] Urotensin 1, urocortin and sauvagine were also neuroprotective albeit with lower potency (<1 μM).
substance,measurement,setting,value
H-SQEPPISLDLTFHLLREVLEMTKADQLAQQAHNNRKLLDIA-NH2 [CRF],neuroprotective effect with delayed CRF addition,"[1]; CRF 10 nM added 10, 24 and 32 hours after LY 294002 75 μM",Only a small neuroprotective effect
same,neuroprotective effect with delayed CRF addition,[1]; CRF 10 nM added 46 hours after LY 294002 75 μM,no neuroprotection
same,time of CRF addition after LY 294002 at which neuroprotective effect is sustained (FIG. 6A),"[1]; CRF 10 nM, LY 294002 75 μM, one experiment",1 to 4 h
same,time of CRF addition after LY 294002 at which neuroprotective effect is sustained (FIG. 6B),"[1]; CRF 10 nM, LY 294002 75 μM, two experiments combined",up to 8 hours
same,neuroprotective effect against Aβ toxicity (FIG. 8),hippocampal neurones,40-50%
same,EC50,[2],~10 nM
